Test results from ChEMBL document CHEMBL1629662, “Antimicrobial activity of prulifloxacin tested against a worldwide collection of gastroenteritis-producing pathogens, including those causing traveler's diarrhea” (2009).
≈ marks a conversion by molar mass, not a printed value.

Assays:
Yersinia enterocolitica = experiment: Antibacterial activity against Yersinia enterocolitica assessed as percent susceptible isolates by broth microdilution method; format: functional
Aeromonas hydrophila = experiment: Antibacterial activity against Aeromonas hydrophila by broth microdilution method; format: functional
[1] = Antibacterial activity against Salmonella enterica serovar Heidelberg by broth microdilution method; format: functional, Salmonella enterica subsp. enterica serovar Heidelberg
[2] = tested on: Yersinia pseudotuberculosis; experiment: Antibacterial activity against Yersinia pseudotuberculosis by broth microdilution method; format: functional
[3] = Antibacterial activity against Salmonella enterica serovar Newport by broth microdilution method; format: functional, Salmonella enterica subsp. enterica serovar Newport
Escherichia coli [4] = experiment: Antibacterial activity against Escherichia coli assessed as growth inhibition at 0.12 ug/ml by broth microdilution method; format: functional
Escherichia coli [5] = experiment: Antibacterial activity against Escherichia coli assessed as growth inhibition at 1 ug/ml by broth microdilution method; format: functional
Vibrio sp. [6] = experiment: Antibacterial activity against Vibrio sp. by broth microdilution method; format: functional
Campylobacter sp. [7] = experiment: Antibacterial activity against Campylobacter sp. assessed as growth inhibition at 1 ug/ml by broth microdilution method; format: functional
Aeromonas veronii [8] = experiment: Antibacterial activity against Aeromonas veronii assessed as percent susceptible isolates by broth microdilution method; format: functional
Salmonella enteritidis = experiment: Antibacterial activity against Salmonella enterica serovar Enteritidis assessed as percent susceptible isolates by broth microdilution method; format: functional, Salmonella enterica subsp. enterica serovar Enteritidis; details: pooled result: one value given for 5 cell lines, strains, targets or settings
Shigella sp. [9] = experiment: Antibacterial activity against Shigella sp. assessed as growth inhibition at 0.008 ug/ml by broth microdilution method; format: functional
Shigella sonnei = experiment: Antibacterial activity against Shigella sonnei assessed as percent resistant isolates by broth microdilution method; format: functional; details: pooled result: one value given for 4 cell lines, strains, targets or settings
[10] = tested on: Yersinia pseudotuberculosis; experiment: Antibacterial activity against Yersinia pseudotuberculosis assessed as percent susceptible isolates by broth microdilution method; format: functional
Salmonella sp. [11] = experiment: Antibacterial activity against Salmonella sp. assessed as growth inhibition at 0.008 ug/ml by broth microdilution method; format: functional
Salmonella sp. [12] = experiment: Antibacterial activity against Salmonella sp. assessed as growth inhibition at 0.016 ug/ml by broth microdilution method; format: functional
Vibrio sp. [13] = experiment: Antibacterial activity against Vibrio sp. assessed as percent resistant isolates by broth microdilution method; format: functional
Escherichia coli [14] = experiment: Antibacterial activity against Escherichia coli assessed as growth inhibition at 0.25 ug/ml by broth microdilution method; format: functional
Vibrio sp. [15] = experiment: Antibacterial activity against Vibrio sp. assessed as growth inhibition at 0.016 ug/ml by broth microdilution method; format: functional
Escherichia coli [16] = experiment: Antibacterial activity against enterotoxigenic Escherichia coli by broth microdilution method; format: functional
Aeromonas sp. [17] = experiment: Antibacterial activity against Aeromonas sp. assessed as growth inhibition at 0.5 ug/ml by broth microdilution method; format: functional
Salmonella typhi [18] = experiment: Antibacterial activity against Salmonella enterica serovar Typhi assessed as percent susceptible isolates by broth microdilution method; format: functional, Salmonella enterica subsp. enterica serovar Typhi
[19] = Antibacterial activity against Salmonella enterica serovar Choleraesuis assessed as percent susceptible isolates by broth microdilution method; format: functional, Salmonella enterica subsp. enterica serovar Choleraesuis
Aeromonas veronii [20] = experiment: Antibacterial activity against Aeromonas veronii by broth microdilution method; format: functional
Salmonella sp. [21] = experiment: Antibacterial activity against Salmonella sp. assessed as growth inhibition at 0.03 ug/ml by broth microdilution method; format: functional
Escherichia coli [22] = experiment: Antibacterial activity against blood-borne Escherichia coli assessed as percent resistant isolates by broth microdilution method; format: functional
Campylobacter sp. [23] = experiment: Antibacterial activity against Campylobacter sp. assessed as growth inhibition at 0.016 ug/ml by broth microdilution method; format: functional
[24] = Antibacterial activity against Salmonella enterica serovar Virchow by broth microdilution method; format: functional, Salmonella enterica subsp. enterica serovar Virchow
Escherichia coli [25] = experiment: Antibacterial activity against enteroaggregative Escherichia coli assessed as percent resistant isolates by broth microdilution method; format: functional
Vibrio alginolyticus [26] = experiment: Antibacterial activity against Vibrio alginolyticus assessed as percent resistant isolates by broth microdilution method; format: functional
Aeromonas sp. [27] = experiment: Antibacterial activity against Aeromonas sp. assessed as growth inhibition at 0.06 ug/ml by broth microdilution method; format: functional
Shigella boydii = experiment: Antibacterial activity against Shigella boydii by broth microdilution method; format: functional
Aeromonas sp. [28] = experiment: Antibacterial activity against Aeromonas sp. assessed as growth inhibition at 0.25 ug/ml by broth microdilution method; format: functional
Escherichia coli [29] = experiment: Antibacterial activity against Escherichia coli assessed as percent susceptible isolates by broth microdilution method; format: functional
Vibrio vulnificus = experiment: Antibacterial activity against Vibrio vulnificus assessed as percent susceptible isolates by broth microdilution method; format: functional
Vibrio alginolyticus [30] = experiment: Antibacterial activity against Vibrio alginolyticus by broth microdilution method; format: functional
Salmonella sp. [31] = experiment: Antibacterial activity against Salmonella sp. assessed as growth inhibition at 0.004 ug/ml by broth microdilution method; format: functional
Salmonella typhi [32] = experiment: Antibacterial activity against Salmonella enterica serovar Typhi by broth microdilution method; format: functional, Salmonella enterica subsp. enterica serovar Typhi
Escherichia coli [33] = experiment: Antibacterial activity against enteropathogenic Escherichia coli assessed as percent susceptible isolates by broth microdilution method; format: functional
Shigella sp. [34] = experiment: Antibacterial activity against Shigella sp. assessed as growth inhibition at =<0.002 ug/ml by broth microdilution method; format: functional
Aeromonas veronii [35] = experiment: Antibacterial activity against Aeromonas veronii assessed as percent resistant isolates by broth microdilution method; format: functional
Vibrio fluvialis = experiment: Antibacterial activity against Vibrio fluvialis by broth microdilution method; format: functional

Work on CC1Sc2c(C(=O)O)c(=O)c3cc(F)c(N4CCNCC4)cc3n21 (centres undefined) [ULIFLOXACIN] yielded an Activity (Yersinia enterocolitica) of 100%, an MIC50 (Aeromonas hydrophila) of 4 ng/mL (≈ 0.0114 µM) and an MIC90 (Aeromonas hydrophila) of 60 ng/mL (≈ 0.172 µM). The MIC50 [1] was 8 ng/mL (≈ 0.0229 µM), the MIC90 [1] was 30 ng/mL (≈ 0.0859 µM) and the MIC [2] was 8 ng/mL (≈ 0.0229 µM). It also gave an MIC50 [2] of 8 ng/mL (≈ 0.0229 µM), an MIC90 [2] of 16 ng/mL (≈ 0.0458 µM) and an MIC50 [3] of 8 ng/mL (≈ 0.0229 µM). For the same compound, the MIC90 [3] was 30 ng/mL (≈ 0.0859 µM), the inhibition at 0.12 µg/mL (Escherichia coli [4]) was 97% and the inhibition at 1 µg/mL (Escherichia coli [5]) was 97%. It also gave an MIC50 (Vibrio sp. [6]) of 16 ng/mL (≈ 0.0458 µM), an MIC90 (Vibrio sp. [6]) of 30 ng/mL (≈ 0.0859 µM) and an inhibition at 1 µg/mL (Campylobacter sp. [7]) of 84%. It also gave an Activity (Aeromonas veronii [8]) of 98%, an Activity (Salmonella enteritidis) of 100% and an inhibition at 0.008 µg/mL (Shigella sp. [9]) of 95%. The Activity (Shigella sonnei) was 0%, the Activity [10] was 100% and the inhibition at 0.008 µg/mL (Salmonella sp. [11]) was 65%. For the same compound, the inhibition at 0.016 µg/mL (Salmonella sp. [12]) was 85%, the Activity (Vibrio sp. [13]) was 0% and the inhibition at 0.25 µg/mL (Escherichia coli [14]) was 97%. It also gave an inhibition at 0.016 µg/mL (Vibrio sp. [15]) of 65%, an MIC (Escherichia coli [16]) of 4 ng/mL (≈ 0.0114 µM) and an MIC50 (Escherichia coli [16]) of 4 ng/mL (≈ 0.0114 µM). The MIC90 (Escherichia coli [16]) was 8 ng/mL (≈ 0.0229 µM), the MIC (Escherichia coli [16]; Escherichia coli, read-out: MIC) was 4 ng/mL (≈ 0.0114 µM) and the MIC50 (Escherichia coli [16]; Escherichia coli, read-out: MIC50) was 4 ng/mL (≈ 0.0114 µM). For the same compound, the MIC90 (Escherichia coli [16]; Escherichia coli, read-out: MIC90) was 8 ng/mL (≈ 0.0229 µM), the inhibition at 0.5 µg/mL (Aeromonas sp. [17]) was 98% and the Activity (Salmonella typhi [18]) was 100%. For the same compound, the Activity [19] was 100%, the MIC50 (Aeromonas veronii [20]) was 4 ng/mL (≈ 0.0114 µM) and the MIC90 (Aeromonas veronii [20]) was 60 ng/mL (≈ 0.172 µM). It also gave an inhibition at 0.03 µg/mL (Salmonella sp. [21]) of 91%, an Activity (Escherichia coli [22]) of 10% and an inhibition at 0.016 µg/mL (Campylobacter sp. [23]) of 8%. It also gave an MIC50 [24] of 8 ng/mL (≈ 0.0229 µM), an MIC90 [24] of 30 ng/mL (≈ 0.0859 µM) and an Activity (Escherichia coli [25]) of 0%. The Activity (Vibrio alginolyticus [26]) was 0%, the inhibition at 0.06 µg/mL (Aeromonas sp. [27]) was 92% and the MIC50 (Shigella boydii) was 4 ng/mL (≈ 0.0114 µM). For the same compound, the MIC90 (Shigella boydii) was 8 ng/mL (≈ 0.0229 µM), the inhibition at 0.25 µg/mL (Aeromonas sp. [28]) was 95% and the Activity (Escherichia coli [29]) was 97%. For the same compound, the Activity (Vibrio vulnificus) was 100%, the MIC50 (Vibrio alginolyticus [30]) was 16 ng/mL (≈ 0.0458 µM) and the MIC90 (Vibrio alginolyticus [30]) was 30 ng/mL (≈ 0.0859 µM). It also gave an inhibition at 0.004 µg/mL (Salmonella sp. [31]) of 10%, an MIC50 (Salmonella typhi [32]) of 8 ng/mL (≈ 0.0229 µM) and an MIC90 (Salmonella typhi [32]) of 30 ng/mL (≈ 0.0859 µM). For the same compound, the Activity (Escherichia coli [33]) was 100%, the “inhibition (INH)” value (Shigella sp. [34]) was 1% and the Activity (Aeromonas veronii [35]) was 2%. The MIC50 (Vibrio fluvialis) was 16 ng/mL (≈ 0.0458 µM) and the MIC90 (Vibrio fluvialis) was 30 ng/mL (≈ 0.0859 µM).
